Test results taken from ChEMBL document CHEMBL5518237, “Design of Novel 2-Phenylquinazolin-4-amines as Selective CYP1B1 Inhibitors for Overcoming Paclitaxel Resistance in A549 Cells” (J Med Chem, 2024).
Activity calls are given as the source filed them. No cut-off for these calls is given here.

How the values were obtained:
[1] = Drug uptake in human A549 cells using radiolabeled compound at 0.037 MBq incubated for 120 mins by gamma-counting analysis; assay type: ADME, cell-based; conditions: a549, 2 h
[2] = (§1) Selectivity ratio of IC50 for Inhibition of human recombinant CYP1A2 to IC50 for Inhibition of human recombinant CYP1B1; assay type: ADME; conditions: recombinant enzyme
[3] = n-Octanol/PBS partition coefficient, log D of the radiolabeled compound at 0.37 MBq at pH 7.4 by gamma-counting analysis; assay type: physicochemical
Cytochrome P450 1A1 = biological target: T1, Cytochrome P450 1A1 (Homo sapiens, UniProt P04798); assay: Inhibition of human recombinant CYP1A1 using 7-ethoxyresorufin as substrate preincubated with enzyme for 5 mins followed by fluorescent substrate and NADPH addition and measured after 15 mins by EROD assay; assay type: ADME
T1 sequence (P04798 whole entry): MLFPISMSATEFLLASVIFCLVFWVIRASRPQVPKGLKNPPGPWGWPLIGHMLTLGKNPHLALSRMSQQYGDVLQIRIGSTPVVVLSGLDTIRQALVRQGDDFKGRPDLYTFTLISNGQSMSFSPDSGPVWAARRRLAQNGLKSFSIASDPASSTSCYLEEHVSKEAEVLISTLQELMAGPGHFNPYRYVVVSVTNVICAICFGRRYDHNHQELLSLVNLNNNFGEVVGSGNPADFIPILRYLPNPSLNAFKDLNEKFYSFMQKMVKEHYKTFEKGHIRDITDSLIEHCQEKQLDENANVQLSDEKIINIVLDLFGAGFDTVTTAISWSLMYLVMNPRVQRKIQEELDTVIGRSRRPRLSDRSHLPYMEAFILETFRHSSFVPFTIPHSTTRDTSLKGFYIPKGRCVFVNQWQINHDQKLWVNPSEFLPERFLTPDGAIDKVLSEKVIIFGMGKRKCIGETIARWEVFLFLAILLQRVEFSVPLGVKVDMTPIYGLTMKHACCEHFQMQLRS

[4] = Selectivity ratio of IC50 for Inhibition of human recombinant CYP1A1 to IC50 for Inhibition of human recombinant CYP1B1; assay type: ADME; conditions: recombinant enzyme
[5] = Drug uptake in human HCT-116 cells using radiolabeled compound at 0.037 MBq incubated for 120 mins by gamma-counting analysis; assay type: ADME, cell-based; conditions: hct-116, 2 h
[6] = Drug uptake in human HEK293T cells using radiolabeled compound at 0.037 MBq incubated for 120 mins by gamma-counting analysis; assay type: ADME, cell-based; conditions: hek-293t, 2 h
Cytochrome P450 1A2 = biological target: T2, Cytochrome P450 1A2 (Homo sapiens, UniProt P05177); assay: Inhibition of human recombinant CYP1A2 using 7-ethoxyresorufin as substrate preincubated with enzyme for 5 mins followed by fluorescent substrate and NADPH addition and measured after 50 mins by EROD assay; assay type: ADME
T2 sequence (P05177 whole entry): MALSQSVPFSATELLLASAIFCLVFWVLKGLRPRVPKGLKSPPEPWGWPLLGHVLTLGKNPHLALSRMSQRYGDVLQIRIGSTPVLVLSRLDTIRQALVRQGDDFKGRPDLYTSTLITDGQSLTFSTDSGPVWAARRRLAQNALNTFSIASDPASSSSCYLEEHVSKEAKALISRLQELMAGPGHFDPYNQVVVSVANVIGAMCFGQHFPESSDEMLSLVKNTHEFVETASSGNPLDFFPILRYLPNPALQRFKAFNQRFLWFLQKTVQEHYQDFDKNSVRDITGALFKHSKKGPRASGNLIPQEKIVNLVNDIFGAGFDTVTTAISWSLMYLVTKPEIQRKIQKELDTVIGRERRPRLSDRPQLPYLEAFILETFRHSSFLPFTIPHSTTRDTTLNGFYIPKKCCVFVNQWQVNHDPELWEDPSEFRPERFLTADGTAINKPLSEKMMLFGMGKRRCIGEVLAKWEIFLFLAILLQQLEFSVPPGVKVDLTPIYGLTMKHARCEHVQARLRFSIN

Cytochrome P450 1B1 = biological target: T3, Cytochrome P450 1B1 (Homo sapiens, UniProt Q16678); assay: Inhibition of human recombinant CYP1B1 using 7-ethoxyresorufin as substrate preincubated with enzyme for 5 mins followed by fluorescent substrate and NADPH addition and measured after 35 mins by EROD assay; assay type: ADME
T3 sequence (Q16678 whole entry): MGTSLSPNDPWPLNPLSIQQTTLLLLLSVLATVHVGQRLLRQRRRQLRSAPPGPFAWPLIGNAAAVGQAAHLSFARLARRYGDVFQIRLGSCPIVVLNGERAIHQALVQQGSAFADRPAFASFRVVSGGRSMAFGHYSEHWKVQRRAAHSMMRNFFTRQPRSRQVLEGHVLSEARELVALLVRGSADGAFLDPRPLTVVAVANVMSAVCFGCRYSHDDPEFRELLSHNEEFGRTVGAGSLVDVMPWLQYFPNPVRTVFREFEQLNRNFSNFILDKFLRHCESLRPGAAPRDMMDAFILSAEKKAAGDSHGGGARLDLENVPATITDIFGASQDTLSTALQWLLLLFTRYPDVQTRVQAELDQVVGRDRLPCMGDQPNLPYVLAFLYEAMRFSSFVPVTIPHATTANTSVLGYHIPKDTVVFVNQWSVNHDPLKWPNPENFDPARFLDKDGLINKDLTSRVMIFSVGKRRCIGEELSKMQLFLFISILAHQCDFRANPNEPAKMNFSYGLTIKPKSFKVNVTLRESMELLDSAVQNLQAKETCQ

CYP1A2 versus CYP1B1 = assay: as §1; assay type: ADME; conditions: recombinant CYP1A2 and recombinant CYP1B1, read-out: Ratio IC50
A549 [7] = assay: Inhibition of tumor metastasis in DMBA-stimulated PTX resistant human A549 cells assessed as inhibition of cell migration by measuring decrease in crawling ability of cells at 2.5 to 10 uM incubated for 48 hrs by wound healing assay; assay type: functional, cell-based; conditions: dose 2.5-10 µM
A549 [8] = assay: Reversal of DMBA-stimulated PTX resistance in human A549 cells assessed as decrease in cell viability at 1.25 to 10 uM incubated for 24 hrs in presence of DMBA and paclitaxel by MTT assay; assay type: functional, cell-based; conditions: dose 1.25-10 µM
HEK-293T = assay: Cytotoxicity against human HEK293T cells assessed as reduction in cell viability at 0.625 to 20 uM incubated for 48 hrs by MTT assay; assay type: toxicity, cell-based; conditions: dose 0.625-20 µM
A549 [9] = assay: Induction of apoptosis in DMBA-stimulated PTX resistant human A549 cells assessed as apoptosis rate at 5 uM incubated for 24 hrs by flow cytometry (reference value: 6.67 +/- 1.03%); assay type: functional
CYP1B1 [10] = biological target: T4, CYP1B1 (Homo sapiens, UniProt Q16678); assay: Inhibition of human recombinant CYP1B1 using 7-ethoxyresorufin as substrate at 0.01 uM preincubated with enzyme for 5 mins followed by fluorescent substrate and NADPH addition and measured after 35 mins by EROD assay; assay type: ADME; conditions: recombinant CYP1B1, probe 7-ethoxyresorufin, time 40 min
T4 sequence (Q16678 whole entry): T3 sequence (Q16678 whole entry)

[11] = n-Octanol/water partition coefficient, logP of the compound by HPLC analysis; assay type: physicochemical; conditions: octanol/water
CYP1B1 [12] = biological target: T4, CYP1B1; assay: Inhibition of human recombinant CYP1B1 using 7-ethoxyresorufin as substrate at 1 uM preincubated with enzyme for 5 mins followed by fluorescent substrate and NADPH addition and measured after 35 mins by EROD assay; assay type: ADME; conditions: recombinant CYP1B1, probe 7-ethoxyresorufin, time 40 min
A549 [13] = assay: Cytotoxicity against human A549 cells assessed as reduction in cell viability at 0.625 to 20 uM incubated for 48 hrs by MTT assay; assay type: toxicity, cell-based; conditions: a549, 48 h, dose 0.625-20 µM

Row | Compound | Drug uptake [1] | Ratio IC50 [2] | logD ([3]; octanol/water) | IC50 (Cytochrome P450 1A1) | Ratio IC50 [4] | Drug uptake [5] | Drug uptake [6] | IC50 (Cytochrome P450 1A2) | IC50 (Cytochrome P450 1B1) | selectivity ratio (CYP1A2 versus CYP1B1) | logD ([3]; n-octanol/PBS, read-out: logD) | inhibition (A549 [7]) | Activity (A549 [8]) | Activity (HEK-293T) | Activity (A549 [9]) | inhibition at 35 min, 0.01 µM (CYP1B1 [10]) | logP [11] | inhibition at 35 min, 1 µM (CYP1B1 [12]) | Activity (A549 [13])
1 | CNc1nc(-c2ccc(I)cc2)nc2ccccc12 | Active | 1.49 10^6No_unit | 3.55 | 26.5 nM | 3.54 10^4No_unit | Active | Active | 1110 nM | 0.000747 nM |  |  |  |  |  |  |  |  |  | 
2 | CCNc1nc(-c2ccc(I)cc2)nc2ccccc12 [listing 1 of 2 here] | Active |  |  | 1.63 nM | 7.95 10^5No_unit | Active | Active | 968 nM | 0.000205 nM | 4.72e+06 | 3.54 |  |  |  |  |  |  |  | 
3 | CCNc1nc(-c2ccc(I)cc2)nc2ccccc12 [listing 2 of 2 here] |  |  |  |  |  |  |  |  |  |  |  | Active | Active |  |  |  |  |  | 
4 | FCCNc1nc(-c2ccc(I)cc2)nc2ccccc12 [listing 1 of 2 here] |  |  |  |  |  |  |  |  |  |  |  | Active | Active |  |  |  |  |  | 
5 | CNc1nc(-c2ccc(I)cc2)nc2ccccc12.Cl |  | 4.92 10^6No_unit |  | 27.4 nM | 1.63 10^5No_unit |  |  | 827 nM | 0.000168 nM |  |  |  |  | Non-Toxic | 32.84% | 96.6% | 3.15 | 97.1% | Non-Toxic
6 | FCCNc1nc(-c2ccc(I)cc2)nc2ccccc12 [listing 2 of 2 here] | Active | 3029.17 |  | 36.7 nM | 151.87 | Active | Active | 727 nM | 0.24 nM |  | 3.34 |  |  |  |  |  |  |  | 
